Assay results from PMC5018213 (Journal of medicinal chemistry, 2016).
Read-outs that look alike come from different tables or passages of the source.

Columns and labels:
human PCFT = biological target: T1, human PCFT (Homo sapiens, UniProt Q96NT5); experiment: PCFT transport competition, [3H]MTX uptake in R2/PCFT4 CHO cells; format: cell-based; conditions: for inhibition at 1 µM / inhibition at 10 µM: pH 5.5, read-out: Inhibition of [3H]MTX uptake; for Ki for PCFT [3H]MTX transport inhibition, fold higher than for PMX: pH 5.5, Dixon analysis
T1 sequence (Q96NT5 1-459): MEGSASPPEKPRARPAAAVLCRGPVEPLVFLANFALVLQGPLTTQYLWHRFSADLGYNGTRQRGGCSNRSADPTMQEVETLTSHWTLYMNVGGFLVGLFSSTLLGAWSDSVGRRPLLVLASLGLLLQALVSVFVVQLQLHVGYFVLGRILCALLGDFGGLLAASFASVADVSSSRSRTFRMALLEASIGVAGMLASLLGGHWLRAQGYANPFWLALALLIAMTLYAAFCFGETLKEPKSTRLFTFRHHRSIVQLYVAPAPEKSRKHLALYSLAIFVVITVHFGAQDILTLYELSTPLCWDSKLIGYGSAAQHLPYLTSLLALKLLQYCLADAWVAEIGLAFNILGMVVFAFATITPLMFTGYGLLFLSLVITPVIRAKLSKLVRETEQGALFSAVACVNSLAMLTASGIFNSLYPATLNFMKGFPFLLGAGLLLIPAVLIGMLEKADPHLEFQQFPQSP

[1] = system: CHO subline engineered to express human RFC (PC43-10); experiment: Proliferation assay, RFC-expressing PC43-10 CHO cells; conditions: PC43-10, 96 h, read-out: IC50 PC43-10 (RFC)
[2] = system: KB human tumor cells (express RFC, FRα, and PCFT); format: cell-based
FRα (RT16 CHO cells) = FRα (RT16 CHO cells) (Homo sapiens, UniProt P15328); experiment: FR binding assay, [3H]folic acid competition in RT16 cells; conditions: folic acid = 1
FRβ (D4 CHO cells) = FRβ (D4 CHO cells) (Homo sapiens, UniProt P14207); experiment: FR binding assay, [3H]folic acid competition in D4 cells; conditions: folic acid = 1
human GARFTase = biological target: T2, human GARFTase (Homo sapiens, UniProt P22102); format: biochemical; conditions: from Ki values, Table 2
T2 sequence (P22102 810-1010 limits assumed): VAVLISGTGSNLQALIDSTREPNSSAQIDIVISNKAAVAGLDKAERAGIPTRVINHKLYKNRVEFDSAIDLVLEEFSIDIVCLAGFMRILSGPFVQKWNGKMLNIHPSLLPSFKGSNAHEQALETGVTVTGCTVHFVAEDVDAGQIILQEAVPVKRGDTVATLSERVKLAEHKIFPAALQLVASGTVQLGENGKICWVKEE

[3] = system: IGROV1 ovarian tumor xenografts; experiment: In vivo efficacy trial with IGROV1 xenografts in SCID mice; conditions: folate-deficient diet

Sequence of FRβ (D4 CHO cells) (P14207 17-255): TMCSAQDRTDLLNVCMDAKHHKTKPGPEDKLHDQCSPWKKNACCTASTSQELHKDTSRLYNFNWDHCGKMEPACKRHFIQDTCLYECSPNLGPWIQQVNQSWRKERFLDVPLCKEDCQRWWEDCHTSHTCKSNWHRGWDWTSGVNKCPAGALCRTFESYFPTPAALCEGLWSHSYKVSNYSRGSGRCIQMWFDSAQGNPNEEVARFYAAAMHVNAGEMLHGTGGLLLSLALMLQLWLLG
Sequence of FRα (RT16 CHO cells) (P15328 25-257): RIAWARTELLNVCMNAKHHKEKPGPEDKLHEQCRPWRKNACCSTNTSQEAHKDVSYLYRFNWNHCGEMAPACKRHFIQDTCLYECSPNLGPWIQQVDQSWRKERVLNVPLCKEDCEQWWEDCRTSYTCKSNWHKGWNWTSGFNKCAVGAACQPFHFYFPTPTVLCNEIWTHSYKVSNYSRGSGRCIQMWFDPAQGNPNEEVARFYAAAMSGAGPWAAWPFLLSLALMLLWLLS

Nc1nc2[nH]c(CCCc3ccc(C(=O)N[C@@H](CCC(=O)O)C(=O)O)cc3)cc2c(=O)[nH]1 [Compound 1] showed an inhibition at 1 µM (human PCFT) of 30 to 60%, an inhibition at 10 µM (human PCFT) of 80 to 90% and an IC50 [1] of 649 nM.

Nc1nc2[nH]c(CCCc3ccc(C(=O)N[C@@H](CCC(=O)O)C(=O)O)s3)cc2c(=O)[nH]1 [Compound 3] showed an IC50 ([2]; read-out: IC50 KB) of 0.26 nM, an IC50 ([2]; read-out: IC50 KB (+FA)) of 101 nM and an IC50 [1] of 101 nM.

In the case of Nc1nc2[nH]c(CCNc3ccc(C(=O)N[C@@H](CCC(=O)O)C(=O)O)cc3)cc2c(=O)[nH]1 [Compound 4, (4-{[2-(2-Amino-4-oxo-4,7-dihydro-3H-pyrrolo[2,3-d]pyrimidin-6-yl)ethyl]amino}benzoyl)-L-glutamic acid], the “Relative binding affinity, % of the affinity for folic acid, FRα” value (from here on “Relative binding affinity, % … FRα”) (FRα (RT16 CHO cells)) is reported as 60–110%, the “Relative binding affinity, % of the affinity for folic acid, FRβ” value (shortened to “Relative binding affinity, % … FRβ”) (FRβ (D4 CHO cells)) is reported as 60–110% and the “Improvement in GARFTase inhibitory potency over C (1)” value (human GARFTase) is reported as “approximately 3 fold”. The “T-C (tumor growth delay)” value ([3]; 384 mg/kg total dose) was 9 days, the log10 kill ([3]; 384 mg/kg total dose) was 1.4 and the “Highest non-toxic total dose” value ([3]; Q3dx4 iv) was 600 mg/kg. The “Body weight loss (nadir)” value ([3]; during treatment, reversible) was 17.0–17.3%.

CC(=O)N(CCc1cc2c(=O)[nH]c(N)nc2[nH]1)c1ccc(C(=O)N[C@@H](CCC(=O)O)C(=O)O)cc1 [Compound 6, (4-{N-[2-(2-amino-4-oxo-4,7-dihydro-3H-pyrrolo[2,3-d]pyrimidin-6-yl)ethyl]acetamido}benzoyl)-L-glutamic acid] was tested, and the “Ki for PCFT [3H]MTX transport inhibition, fold higher than for PMX” value (human PCFT) was ~ 18 fold.

For Nc1nc2[nH]c(CCOc3ccc(C(=O)N[C@@H](CCC(=O)O)C(=O)O)cc3)cc2c(=O)[nH]1 [Compound 8, {4-[2-(2-amino-4-oxo-4,7-dihydro-3H-pyrrolo[2,3-d]pyrimidin-6-yl)ethoxy]benzoyl}-L-glutamic acid], the “Relative binding affinity, % … FRα” value (FRα (RT16 CHO cells)) was 60–110%, the “Relative binding affinity, % … FRβ” value (FRβ (D4 CHO cells)) was 60–110% and the “Ki for PCFT [3H]MTX transport inhibition, fold higher than for PMX” value (human PCFT) was ~ 7 fold. The “Improvement in GARFTase inhibitory potency over C (1)” value (human GARFTase) was “approximately 3 fold”.

In the case of Nc1nc2[nH]c(CCSc3ccc(C(=O)N[C@@H](CCC(=O)O)C(=O)O)cc3)cc2c(=O)[nH]1 [Compound 9, (4-{[2-(2-amino-4-oxo-4,7-dihydro-3H-pyrrolo[2,3-d]pyrimidin-6-yl)ethyl]thio}benzoyl)-L-glutamic acid], the “Relative binding affinity, % … FRα” value (FRα (RT16 CHO cells)) is reported as 60–110% and the “Relative binding affinity, % … FRβ” value (FRβ (D4 CHO cells)) is reported as 60–110%.

Nc1nc2[nH]cc(CCc3ccc(C(=O)N[C@@H](CCC(=O)O)C(=O)O)cc3)c2c(=O)[nH]1 [PMX, pemetrexed] showed an inhibition at 1 µM (human PCFT) of at least 90% and an inhibition at 10 µM (human PCFT) of at least 90%.
